According to patent publication US5955463A, “Quinazoline thymidylate synthase inhibitors” (Zeneca Limited, priority 1992, dated 1999):

Key:
[1] = test system: leukaemia cell line L1210; experiment: Test (b): inhibition of growth of leukaemia cell line L1210 in cell culture; format: cell-based; conditions: Mus musculus
From the text: (b) An assay which determines the ability of a test compound to inhibit the growth of the leukaemia cell line L1210 in cell culture.

[2] = test system: human breast cancer cell line MCF-7; experiment: Test (c): inhibition of growth of human breast cancer cell line MCF-7 in cell culture; format: cell-based; conditions: MCF7, MCF-7 cell culture growth
From the text: (c) An assay which determines the ability of a test compound to inhibit the growth of the human breast cancer cell line MCF-7 in cell culture.

thymidylate synthase = target: T1, thymidylate synthase (Mus musculus, UniProt P07607); experiment: Test (a): in vitro inhibition of thymidylate synthase (partially purified from L1210 mouse leukaemia cells); format: biochemical
T1 construct: obtained in partially purified form from L1210 mouse leukaemia cells; endogenous in cells; host or cells: L1210 mouse leukaemia cells
T1 sequence (P07607 whole entry): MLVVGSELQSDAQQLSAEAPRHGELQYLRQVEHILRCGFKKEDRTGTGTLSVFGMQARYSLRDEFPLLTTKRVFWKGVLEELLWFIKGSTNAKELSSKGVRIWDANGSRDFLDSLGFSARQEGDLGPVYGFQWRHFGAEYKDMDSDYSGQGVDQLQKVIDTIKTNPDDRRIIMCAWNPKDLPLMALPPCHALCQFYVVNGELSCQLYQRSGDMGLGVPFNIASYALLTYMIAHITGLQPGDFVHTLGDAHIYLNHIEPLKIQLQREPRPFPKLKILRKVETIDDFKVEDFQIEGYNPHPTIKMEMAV
From the text: (a) An in vitro assay which determines the ability of a test compound to inhibit the enzyme thymidylate synthase.

[3] = particularly liver and kidney; cited from earlier work
[4] = test system: human breast, ovarian and liver cancer; conditions: clinical trials; cited from earlier work

| SMILES | IC50 [1] | IC50 [2] | IC50 (thymidylate synthase) | symptoms of toxicity in humans [3] | activity against human breast, ovarian and liver cancer [4] |
| --- | --- | --- | --- | --- | --- |
| C#CCN(Cc1cc2c(=O)[nH]c(C)nc2cc1C)c1ccc(C(=O)N[C@@H](CCc2nnn[nH]2)C(=O)O)c(F)c1 [(2S)-2-{o-fluoro-p-[N-(2,7-dimethyl-4-oxo-3,4-dihydroquinazolin-6-ylmethyl)-N-(prop-2-ynyl)amino]benzamido}-4-(tetrazol-5-yl)butyric acid] | ~0.02 µM | ~0.01 µM | – | – | – |
| Cc1nc2cc(C)c(CN(C)c3ccc(C(=O)N[C@@H](CCc4nnn[nH]4)C(=O)O)c(F)c3)cc2c(=O)[nH]1 [(2S)-2-{o-fluoro-p-[N-(2,7-dimethyl-4-oxo-3,4-dihydroquinazolin-6-ylmethyl)-N-methylamino]benzamido}-4-(tetrazol-5-yl)butyric acid] | ~0.07 µM | ~0.04 µM | ~0.002 µM | – | – |
| C#CCN(Cc1ccc2nc(C)[nH]c(=O)c2c1)c1ccc(C(=O)N[C@@H](CCc2nnn[nH]2)C(=O)O)cc1 [(2S)-2-{p-[N-(2-methyl-4-oxo-3,4-dihydroquinazolin-6-ylmethyl)-N-(prop-2-ynyl)amino]benzamido}-4-(tetrazol-5-yl)butyric acid] | ~0.12 µM | ~0.04 µM | ~0.013 µM | – | – |
| C#CCN(Cc1ccc2nc(N)[nH]c(=O)c2c1)c1ccc(C(=O)N[C@@H](CCC(=O)O)C(=O)O)cc1 [CB3717] | – | – | – | shows symptoms of toxicity in humans, particularly in relation to the liver and kidney | promising activity against human breast, ovarian and liver cancer |
